Results taken from paper PMC4393181, “The Chemopotential Effect of Annona muricata Leaves against Azoxymethane-Induced Colonic Aberrant Crypt Foci in Rats and the Apoptotic Effect of Acetogenin Annomuricin E in HT-29 Cells: A Bioassay-Guided Approach” (PLoS ONE, 2015).

Legend:
[1] = system: Bcl-2; test: Q-PCR gene expression analysis of Bcl-2; assay type: cell-based, human; details: HT-29, IC50 concentration, 12 to 48 h
Procedure: (§1) The mRNA expression of two proteins, Bcl-2 and Bax, was quantified using real-time Q-PCR analysis as described previously with some modifications. […] The total RNA of treated cells was isolated using the RNeasy Plus Mini kit (Qiagen, Hilden, Germany) followed by the synthesis of the complementary DNA using the iScript cDNA synthesis kit (Biorad, Hercules, CA, USA). Q-PCR was performed on the StepOne PLUS real-time PCR machine (Applied Biosystems, Carlsbad, CA, USA). The β-actin housekeeping gene was used as a positive reference and was applied to normalize the target mRNA. The Q-PCR master mix was provided by Solaris Q-PCR Expression Assays (Thermo Fisher Scientific, Waltham, MA, USA) for the gene expression analysis of Bcl-2, AX-003307-00-0100; Bax, AX-003308-00-0100; and β-actin, AX-003451-00-0100.

[2] = system: HT-29 cells; test: Annexin V-FITC/PI detection of early and late apoptosis; assay type: cell-based, human; details: HT-29, IC50 concentration
Procedure: Flow cytometric analysis was performed to quantify early and late apoptosis in treated HT-29 cells using the commercial BD Pharmingen Annexin V-FITC Apoptosis Detection kit (APOAlert Annexin V; Clontech, Mountain View, CA, USA). […] After incubation, the treated cells were harvested, washed twice with PBS and suspended in the Annexin-V binding buffer. The cells were then supplemented with Annexin-V-FITC and PI, according to the vendor’s instructions. The stained cells were examined using a BD FACSCanto II flow cytometer. Early and late apoptotic cells and necrotic cells were quantitatively detected using a quadrant statistics analysis.

[3] = system: caspase 9; test: Caspase-Glo 9 luminescence assay; assay type: cell-based, human; details: HT-29, IC50 concentration, 12 to 48 h, vs control
Procedure: (§2) A luminescence-based analysis was performed to investigate the activity of caspase 3/7 and caspase 9 using the Caspase-Glo 9 Assay and Caspase-Glo 3/7 Assay commercial kits (Promega Corporation, Fitchburg, WI, USA) as described previously. […] After incubation, 100 μl of the caspase-Glo reagent was added to each well according to the manufacturer’s protocol. Luminescence, which represents the caspase activities, was measured using a luminescence microplate reader (Tecan Infinite 200 Pro).

[4] = system: Bcl-2; test: Immunofluorescence analysis of Bcl-2; assay type: cell-based, human; details: HT-29, IC50 concentration, 12, 24 and 48 h, compared with control
Procedure: (§3) The perturbation in the protein expressions of Bcl-2 and Bax was investigated using immunofluorescence analysis as previously described in detail. […] After washing the cells twice with PBS, they were fixed in 4% paraformaldehyde at 25°C for 20 min prior to blocking with blocking buffer (0.03% Triton X-100/PBS and normal serum) for 1 h. The cells were then supplemented with a primary antibody solution and incubated overnight at 4°C. After incubation, the cells were treated with Bcl-2 and Bax flurochrome-conjugated secondary antibody (Santa Cruz Biotechnology, Santa Cruz, CA, USA) for 1 h. The cells were then washed twice with PBS prior to staining with DAPI. The stained cells were examined using the Cell Reporter cytofluorimeter system.

[5] = system: HT-29 (human colon cancer cells); test: MTT assay on HT-29 cells; assay type: cell-based; details: mean ± SEM of three experiments
Procedure: (§4) CCD841 (normal human colon epithelial cells) and HT-29 (human colon cancer cells) were purchased from the American Type Cell Collection (ATCC, Manassas, VA, USA). The cells were maintained at 37°C in a humidified atmosphere of 5% CO2. The culture medium consisted of Dulbecco’s Modified Eagles medium (Sigma) that was supplemented with 10% Fetal Bovine Serum (PAA Laboratories, Pasching, […]), 100 μg/ml streptomycin (Sigma) and 100 U/ml penicillin (Sigma). The untreated medium containing 0.1% vehicle DMSO was applied as the negative control for all of the assays in the in vitro study.
(§5) Cell viability analysis was performed using the MTT assay as described previously. In brief, cells (5 × 10^4 cells/ml) at the exponential phase of growth were seeded in a 96-well plate and treated with serial concentrations of the tested agent (0.62, 1.25, 2.5, 5, 10, 20, 40 and 80 μg/ml) for 12, 24 and 48 h. 5-FU, a standard anticancer drug, was used as a positive control in this assay. After incubation, 20 μl of the MTT solution (5.0 mg/ml, Sigma) was loaded into each well, and the cells were further incubated at 37°C for 4 h. DMSO (150 μl) was then used to dissolve the formazan crystals. The cytotoxicity against cancer and normal cells was measured at the absorbance of 570 nm using an ELISA reader (Asys UVM340, Eugendorf, Austria). The data were then processed, and the antiproliferative potential of the tested agents was expressed as IC50 values, the concentration that causes a 50% inhibition of cell growth.

[6] = system: HT-29 cells; test: Multiple cytotoxicity assay (Cellomics Multiparameter Cytotoxicity 3 Kit); assay type: cell-based, human
Procedure: The simultaneous analysis of critical apoptosis markers, namely cell membrane permeability, cytochrome c leakage from the mitochondria, mitochondrial membrane potential (MMP) and total nuclear intensity, in HT-29 cells was performed using the Cellomics Multiparameter Cytotoxicity 3 Kit (Cellomics, Pittsburgh, PA, USA) as previously described in detail. […] After incubation, the treated cells were stained with a cell permeability dye (FITC), a cytochrome c dye (Cy3), a mitochondrial membrane potential dye (Cy5) and a nuclear dye (Hoechst 33342), according to the vendor’s protocol. The plates were analyzed using a Cell Reporter cytofluorimeter system (Gentix/Molecular Devices, United Kingdom).

[7] = system: Bax; test: Q-PCR gene expression analysis of Bax; assay type: cell-based, human; details: HT-29, IC50 concentration, 48 h, normalized to β-actin
Procedure: as §1

[8] = system: Bax; test: Immunofluorescence analysis of Bax; assay type: cell-based, human; details: HT-29, IC50 concentration, 48 h
Procedure: as §3

[9] = system: HT-29 cells; test: Cell cycle assay (PI staining, flow cytometry); assay type: cell-based, human; details: HT-29, IC50 concentration
Procedure: To determine the effect of annomuricin E on the cell cycle distribution, flow cytometric analysis was performed as described previously. […] After incubation, the treated HT-29 cells were harvested, washed twice with ice-cold PBS and fixed overnight at 4°C with 90% ethanol. The following day, the cells were washed and stained with propidium iodide (PI, 100 μl, 1 mg/ml). The cellular RNA was degraded using the enzyme RNAse A (200 μg/ml, Sigma). The stained cells were instantly examined using a BD FACSCanto II flow cytometer (BD Biosciences, San Jose, CA, USA) by analyzing 10,000 cells per sample. The data were processed using ModFit LT software (Verity Software House, Inc., Topsham, ME, USA).

[10] = system: HT-29 cells; test: LDH release assay; assay type: cell-based, human; details: HT-29, 24 h, compared with 0.1% DMSO control
Procedure: To further confirm the cytotoxic effects of annomuricin E on HT-29 cells, the LDH release assay was performed using the Pierce LDH Cytotoxicity Assay Kit (Thermo Scientific, Pittsburgh, PA, USA) as previously described. Briefly, HT-29 cells at the exponential phase of growth were treated with different concentrations of annomuricin E and Triton X-100 (positive control) for 24 h. After the incubation, the treated HT-29 cells were exposed to the LDH reaction solution (100 μl) for 30 min. The red color intensity, representing the level of released LDH, was then measured at 490 nm using the Tecan Infinite 200 Pro (Tecan, Männedorf, Switzerland) microplate reader. The result of LDH release was calculated as a percentage of the positive control.

[11] = system: CCD841 (normal human colon epithelial cells); test: MTT assay on CCD841 cells; assay type: cell-based; details: mean ± SEM of three experiments
Procedure: as §4, §5

[12] = system: caspase 3/7; test: Caspase-Glo 3/7 luminescence assay; assay type: cell-based, human; details: HT-29, IC50 concentration, 12 to 48 h, vs control
Procedure: as §2

annomuricin E
Bcl-2 mRNA expression [1]: time-dependently reduced
Percentage of late apoptotic cells (Annexin V+/PI+) ([2]; 12 h (control 0.5%)): 6.9%
Percentage of early apoptotic cells (Annexin V+/PI-) ([2]; 12 h (control 3.6%)): 13.9%
Percentage of early apoptotic cells (Annexin V+/PI-) ([2]; 24 h (peak)): 27.3%
Percentage of late apoptotic cells (Annexin V+/PI+) ([2]; 24 h (peak)): 13.6%
Caspase 9 activity [3]: significantly elevated
Bcl-2 protein expression [4]: significantly and dose-dependently reduced
IC50 ([5]; HT-29, 12 h): 5.72 ± 0.41 µg/mL
IC50 ([5]; HT-29, 24 h): 3.49 ± 0.22 µg/mL
IC50 ([5]; HT-29, 48 h): 1.62 ± 0.24 µg/mL
Total nuclear intensity ([6]; HT-29, IC50 concentration, 12, 24 and 48 h): significantly elevated
Mitochondrial membrane potential (MMP) ([6]; HT-29, IC50 concentration, 12 h): significant collapse
Cytochrome c leakage from the mitochondria ([6]; HT-29, IC50 concentration, from 12 h, time-dependent): increase in cytochrome c leakage
Cell membrane permeability ([6]; HT-29, IC50 concentration, only 24 and 48 h): significantly increased
Bax mRNA expression, increase relative to control [7]: approximately 5 fold
Bax protein expression (FITC fluorescent intensity), increase relative to control [8]: approximately 10 fold
Percentage of cells arrested at the G1 phase ([9]; 24 h): 89.65%
Percentage of cells arrested at the G1 phase ([9]; 48 h): 94.60%
Lowest concentration with significant LDH leakage [10]: 4 µg/mL
IC50 ([11]; CCD841, 12 h): 64.32 ± 3.76 µg/mL
IC50 ([11]; CCD841, 24 h): 47.10 ± 0.47 µg/mL
IC50 ([11]; CCD841, 48 h): 32.51 ± 1.18 µg/mL
Caspase 3/7 activity [12]: significantly elevated
